# Results published in US20080311126A1, “Antisense Oligonucleotides Directed to Ribonucleotide Reducatase R2 and Uses Thereof in Combination Therapies for the Treatment of Cancer” (Genesense Technologies, Inc, priority 2004, published 2008).
# Oligonucleotides are written 5' to 3', each unit as a sugar letter and its base; * is a phosphorothioate linkage, no mark a phosphodiester; rarer units and linkages stand in square brackets, end groups in braces. Plain capitals give the bases only. d = 2'-deoxy (DNA)
# Columns and labels:
# Format in all cases: cell-based, human
# Hela S3 cells = experiment: Relative colony forming efficiency, lipofectin +/- oligonucleotide 4 hours; details: Hela S3 cervix carcinoma cells; averages of 2-8 determinations
# Description: Colony forming efficiency was determined using standard protocols. Briefly, the cells were cultured for 24 hours at 37° C. in growth medium with 10% fetal bovine serum. The cells were washed in 5 ml phosphate buffered saline, pH 7.2, once prior to lipofectin +/−oligonucleotide treatment.
# The test oligonucleotides were added to cell cultures in the presence of 2.5 μg of DOTMA/DOPE (Lipofectin; Life Technologies, Inc.) for four hours. The oligonucleotide was tested at 0.2 μM unless otherwise indicated. Controls were the cultures treated with lipofectin but without the oligonucleotide. After 4 hours the medium containing the oligonucleotide was removed and washed with 5 ml of growth medium. The cells were then cultured in growth medium containing 10% fetal bovine serum for seven to ten days. Surviving cells were visualized by methylene blue staining, and colonies were scored. In some experiments cell aliquots were removed from the culture and viability was determined using the trypan blue exclusion test. Results were analyzed as percent of surviving cells compared to control cells.
# AS-II-336-20 was tested for the ability to inhibit the proliferation of human tumour cells (Hela). Hela S3 cells (American Type Culture Collection, Rockville, Md., ATCC), and a Hela cell line (Hela 1 mM) previously selected for resistance to the antitumour agent, hydroxyurea, were tested (see results in Table 11). Two experiments were undertaken with Hela S3 cells. […] The same experiment was repeated with the Hela 1 mM cell line and with varying concentrations of the antisense construct AS-II-336-20 (see results in Table 11) with similar results, […] was an effective concentration for inhibiting colony formation.
# To test the antisense effects of many of these sequences as phosphorthioate deoxyribonucleotides, they were examined in relative colony forming experiments conducted as described in Example 16 with a series of human tumour cell lines. The results (shown as % inhibition of colony forming ability) obtained with cancer cells derived from the bladder, breast, lung, colon, pancreas, prostate, liver and cervix, are shown in Table 13. The specific cell lines employed are as follows:
# T24=bladder cell carcinoma HCT116=colon cell carcinoma A549=lung cell carcinoma MDA-MB-231=breast cell adenocarcinoma […]=pancreatic cell carcinoma PC-3=prostrate cell adenocarcinoma HepG2=hepatocellular carcinoma HeLaS3=cells isolated from a carcinoma of the cervix T-47D=breast ductal carcinoma H596=lung adenosquamous carcinoma cells Colo320=colon cell adenocarcinoma
# [1] = tested on: HCT116 colon cell carcinoma; experiment: Relative colony forming efficiency (Example 17, Table 13); details: averages of 2-8 determinations
# Outline: (§1)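 0.2 μM oligo (default) + 2.5 μg Lipofectin, 4 h exposure; methylene blue stain, colonies counted; vs lipofectin-alone control, reported as % inhibition.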
# [2] = tested on: T24 bladder cell carcinoma; experiment: as above; details: averages of 2-8 determinations
# Outline: as §1
# [3] = tested on: MDA PaCa-2 pancreatic cell carcinoma; experiment: as above; details: MIA PaCa-2 pancreatic cell carcinoma; averages of 2-8 determinations
# Outline: as §1
# [4] = tested on: PC-3 prostrate cell adenocarcinoma; experiment: as above; details: averages of 2-8 determinations
# Outline: as §1
# [5] = tested on: HepG2 hepatocellular carcinoma; experiment: as above; details: averages of 2-8 determinations
# Outline: as §1
# A549 lung cell carcinoma = experiment: as above; details: averages of 2-8 determinations
# Outline: as §1
# [6] = tested on: MDA-MB-231 breast cell adenocarcinoma; experiment: as above; details: averages of 2-8 determinations
# Outline: as §1
Substance,"Reduced relative colony forming efficiency, Hela S3 (% inhibition of colony forming ability) (Hela S3 cells) [%]","Reduced relative colony forming efficiency, HCT116 (% inhibition of colony forming ability) [1] [%]","Reduced relative colony forming efficiency, T24 (% inhibition of colony forming ability) [2] [%]","Reduced relative colony forming efficiency, MIA PaCa-2 (% inhibition of colony forming ability) [3] [%]","Reduced relative colony forming efficiency, PC-3 (% inhibition of colony forming ability) [4] [%]","Reduced relative colony forming efficiency, HepG2 (% inhibition of colony forming ability) [5] [%]","Reduced relative colony forming efficiency, A549 (% inhibition of colony forming ability) (A549 lung cell carcinoma) [%]","Reduced relative colony forming efficiency, MDA-MB-231 (% inhibition of colony forming ability) [6] [%]"
AS-II-114420 (antisense dG*dT*dA*dT*dT*dG*dC*dT*dT*dC*dA*dT*dT*dA*dG*dA*dG*dT*dG*dC),50.57,54.25,62.9,46.39,30.21,92.17,61.81,
ATAAAGTCAAATGGGTTCTC (antisense dA*dT*dA*dA*dA*dG*dT*dC*dA*dA*dA*dT*dG*dG*dG*dT*dT*dC*dT*dC) [AS-II-1224-20],14.8,41.78,38.31,17.22,80.66,76.05,55.06,
GGTTTTCTCTCAGCAGCGGC (antisense dG*dG*dT*dT*dT*dT*dC*dT*dC*dT*dC*dA*dG*dC*dA*dG*dC*dG*dG*dC) [AS-II-404-20],58.37,,84.26,17.84,77.08,84.79,52.17,85.83
TCAGGCAAGCAAAATCACAG (antisense dT*dC*dA*dG*dG*dC*dA*dA*dG*dC*dA*dA*dA*dA*dT*dC*dA*dC*dA*dG) [AS-II-1001-20],,55.58,86.11,64.21,85.94,90.36,71.36,82.17
AACTTCTTGGCTAAATCGCT (antisense dA*dA*dC*dT*dT*dC*dT*dT*dG*dG*dC*dT*dA*dA*dA*dT*dC*dG*dC*dT) [AS-II-634-20],48.94,,83.52,,77.86,95.78,57.76,92.44
TTAGTCTTTCCTTCCAGTGA (antisense dT*dT*dA*dG*dT*dC*dT*dT*dT*dC*dC*dT*dT*dC*dC*dA*dG*dT*dG*dA) [AS-II-1254-20],7.64,28.54,41.53,3.32,73.31,83.28,36.74,
TTAGAAGTCAGCATCCAAGG (antisense dT*dT*dA*dG*dA*dA*dG*dT*dC*dA*dG*dC*dA*dT*dC*dC*dA*dA*dG*dG) [AS-II-1345-20],,65.7,51.26,77.39,89.58,75.42,73.1,94.11
GAACATCAGGCAAGCAAAAT (antisense dG*dA*dA*dC*dA*dT*dC*dA*dG*dG*dC*dA*dA*dG*dC*dA*dA*dA*dA*dT) [AS-II-1006-20],41.79,45.56,61.49,47.93,92.58,89.31,61.62,
AS-II-218220 (antisense dC*dG*dT*dT*dG*dA*dG*dG*dA*dA*dA*dA*dT*dA*dC*dA*dG*dT*dG*dA),,77.66,67.76,56.43,85.91,95.48,90.97,84.95
GCAAAGGCTACAACACGTTC (antisense dG*dC*dA*dA*dA*dG*dG*dC*dT*dA*dC*dA*dA*dC*dA*dC*dG*dT*dT*dC) [AS-II-861-20],,74.2,73.5,97.3,87.33,96.08,95.78,89.98
GCAAAGAAAGCCAGAACATG (antisense dG*dC*dA*dA*dA*dG*dA*dA*dA*dG*dC*dC*dA*dG*dA*dA*dC*dA*dT*dG) [AS-II-579-20],,69.08,76.68,97.55,88.16,94.28,95.49,66.89
